The first experiment relates to REH. The experiment is described as follows: selective drug sensitivity score (sDSS, relative to normal bone marrow) (sDSS (score)); higher = more potent and effective on the cell line relative to normal bone marrow cells. To be noted: 72 h.
`C[C@H]1C[C@@H]2[C@H]([C@@H](O)C[C@@]3(C)[C@H]2CC[C@]3(O)C(=O)CO)[C@@]2(C)C=CC(=O)C=C12` [Methylprednisolone] (top concentration 10000 nM): the “selective drug sensitivity score” value is -2.3.
Same read-out and setting: for `FC(F)(F)c1ccc(/C=C/c2nc(COc3ccc(CCCCn4ccnn4)cc3)co2)cc1` [Mubritinib] (top concentration 1000 nM) the value was 20; for `COc1cc2c(cc1OC(C)C)[C@H](c1ccc(Cl)cc1)N(c1ccc(N(C)C[C@H]3CC[C@H](N4CCN(C)C(=O)C4)CC3)cc1)C(=O)C2` [NVP-CGM097] (top concentration 25000 nM), 5.16; for `CCOc1cc2ncc(C#N)c(Nc3ccc(OCc4ccccn4)c(Cl)c3)c2cc1NC(=O)/C=C/CN(C)C` [Neratinib] (top concentration 1000 nM), -0.12.
Still for that read-out and setting: in the case of `COc1ncc(-c2ccc3nccc(-c4ccnnc4)c3c2)cc1NS(=O)(=O)c1ccc(F)cc1F` [Omipalisib] (top concentration 1000 nM) it was 14.4.
On the same count and under the same terms, in the case of `CN1CCN(c2cc(C(=O)Nc3ccc4c(c3)-c3c(c(C(N)=O)nn3-c3ccc(F)cc3)CC4)c(Cl)cn2)CC1` [PHA-408] (top concentration 10000 nM) it was 0.08.
With `OC[C@H]1O[C@@H](n2cnc3c2N=CNC[C@H]3O)C[C@@H]1O` [Pentostatin] (top concentration 10000 nM), the “selective drug sensitivity score” value was -0.44.
Still for that read-out and setting: for `CC(C)N(C[C@H]1O[C@@H](n2cnc3c(N)ncnc32)[C@H](O)[C@@H]1O)[C@H]1C[C@@H](CCc2nc3cc(C(C)(C)C)ccc3[nH]2)C1` [Pinometostat] (top concentration 1000 nM) the value was 0.
Still for that read-out and setting: for `Cc1ccc(=O)n(-c2ccccc2)c1` [Pirfenidone] (top concentration 10000 nM) the value was 0.

A further experiment concerns SEM cells. The experiment is described as above. To be noted: 72 h.
On to `CC(=O)[C@]1(O)Cc2c(O)c3c(c(O)c2[C@@H](O[C@H]2C[C@H](N)[C@H](O)[C@H](C)O2)C1)C(=O)c1ccccc1C3=O` [Idarubicin] (top concentration 1000 nM), for which the “selective drug sensitivity score” value was determined as 6.74.
On the same count and under the same terms, for `COc1cc2nccc(Oc3ccc(NC(=O)NC4CC4)c(Cl)c3)c2cc1C(N)=O` [Lenvatinib] (top concentration 2500 nM) the value was 0.36; for `N#Cc1ccc(C(c2ccc(C#N)cc2)n2cncn2)cc1` [Letrozole] (top concentration 10000 nM), -0.04.
`CCNCCS(=O)(=O)NC[C@@]1(c2ccccc2)SC(NC(=O)C(C)(C)C)=NN1C(=O)C(C)(C)C` [Litronesib] (top concentration 1000 nM): the “selective drug sensitivity score” value was determined as 20.5.
For the compound `CC[C@H](C)C(=O)O[C@H]1C[C@@H](C)C=C2C=C[C@H](C)[C@H](CC[C@@H]3C[C@@H](O)CC(=O)O3)[C@H]21` [Lovastatin] (top concentration 10000 nM), the “selective drug sensitivity score” value was found to be 5.
Same read-out and setting: in the case of `Cn1cc(-c2cnn3c(N)c(Br)c([C@@H]4CCCNC4)nc23)cn1` [MK-8776] (top concentration 2500 nM) it was 2.64.
Turning to `Cc1cnc(-c2ccccc2C(C)C)nc1NCc1ccc(-n2ccnn2)cc1` [ML323] (top concentration 10000 nM), the “selective drug sensitivity score” value worked out at 1.14.
Still for that read-out and setting: in the case of `O=C(CCNC(=O)c1ccc(OC(F)(F)F)cc1)N[C@@H]1CCCc2ccccc21` [ML390] (top concentration 50000 nM) it was 10.8.
On the same count and under the same terms, in the case of `CN(C)C(=N)NC(=N)N` [Metformin] (top concentration 100000 nM) it was -0.02; in that of `C[C@H]1C[C@@H]2[C@H]([C@@H](O)C[C@@]3(C)[C@H]2CC[C@]3(O)C(=O)CO)[C@@]2(C)C=CC(=O)C=C12` [Methylprednisolone] (top concentration 10000 nM), 7.9.
On the same count and under the same terms, for `FC(F)(F)c1ccc(/C=C/c2nc(COc3ccc(CCCCn4ccnn4)cc3)co2)cc1` [Mubritinib] (top concentration 1000 nM) the value was 6.56; for `COc1cc2c(cc1OC(C)C)[C@H](c1ccc(Cl)cc1)N(c1ccc(N(C)C[C@H]3CC[C@H](N4CCN(C)C(=O)C4)CC3)cc1)C(=O)C2` [NVP-CGM097] (top concentration 25000 nM), -4.84.
Take `CCOc1cc2ncc(C#N)c(Nc3ccc(OCc4ccccn4)c(Cl)c3)c2cc1NC(=O)/C=C/CN(C)C` [Neratinib] (top concentration 1000 nM): the “selective drug sensitivity score” value worked out at 1.28.
Still for that read-out and setting: in the case of `COc1ncc(-c2ccc3nccc(-c4ccnnc4)c3c2)cc1NS(=O)(=O)c1ccc(F)cc1F` [Omipalisib] (top concentration 1000 nM) it was 9.4; in that of `CN1CCN(c2cc(C(=O)Nc3ccc4c(c3)-c3c(c(C(N)=O)nn3-c3ccc(F)cc3)CC4)c(Cl)cn2)CC1` [PHA-408] (top concentration 10000 nM), -2.02; in that of `OC[C@H]1O[C@@H](n2cnc3c2N=CNC[C@H]3O)C[C@@H]1O` [Pentostatin] (top concentration 10000 nM), -0.44.
Same read-out and setting: in the case of `CC(C)N(C[C@H]1O[C@@H](n2cnc3c(N)ncnc32)[C@H](O)[C@@H]1O)[C@H]1C[C@@H](CCc2nc3cc(C(C)(C)C)ccc3[nH]2)C1` [Pinometostat] (top concentration 1000 nM) it was 0; in that of `Cc1ccc(=O)n(-c2ccccc2)c1` [Pirfenidone] (top concentration 10000 nM), 0.

For another experiment, the system named is SUP-B15. Described as above. As to conditions: 72 h.
For `CC(=O)[C@]1(O)Cc2c(O)c3c(c(O)c2[C@@H](O[C@H]2C[C@H](N)[C@H](O)[C@H](C)O2)C1)C(=O)c1ccccc1C3=O` [Idarubicin] (top concentration 1000 nM), the “selective drug sensitivity score” value came to 9.74.
On the same count and under the same terms, in the case of `COc1cc2nccc(Oc3ccc(NC(=O)NC4CC4)c(Cl)c3)c2cc1C(N)=O` [Lenvatinib] (top concentration 2500 nM) it was 6.46; in that of `N#Cc1ccc(C(c2ccc(C#N)cc2)n2cncn2)cc1` [Letrozole] (top concentration 10000 nM), 0.36; in that of `CCNCCS(=O)(=O)NC[C@@]1(c2ccccc2)SC(NC(=O)C(C)(C)C)=NN1C(=O)C(C)(C)C` [Litronesib] (top concentration 1000 nM), 21.7.
With `CC[C@H](C)C(=O)O[C@H]1C[C@@H](C)C=C2C=C[C@H](C)[C@H](CC[C@@H]3C[C@@H](O)CC(=O)O3)[C@H]21` [Lovastatin] (top concentration 10000 nM), the “selective drug sensitivity score” value was -0.1.
On the same count and under the same terms, for `Cn1cc(-c2cnn3c(N)c(Br)c([C@@H]4CCCNC4)nc23)cn1` [MK-8776] (top concentration 2500 nM) the value was -0.06; for `Cc1cnc(-c2ccccc2C(C)C)nc1NCc1ccc(-n2ccnn2)cc1` [ML323] (top concentration 10000 nM), 2.94.
The same measure, in the same setting: for `O=C(CCNC(=O)c1ccc(OC(F)(F)F)cc1)N[C@@H]1CCCc2ccccc21` [ML390] (top concentration 50000 nM) the value was 19.1; for `CN(C)C(=N)NC(=N)N` [Metformin] (top concentration 100000 nM), -0.02.
Turning to `C[C@H]1C[C@@H]2[C@H]([C@@H](O)C[C@@]3(C)[C@H]2CC[C@]3(O)C(=O)CO)[C@@]2(C)C=CC(=O)C=C12` [Methylprednisolone] (top concentration 10000 nM), the “selective drug sensitivity score” value is 32.9.
On to `FC(F)(F)c1ccc(/C=C/c2nc(COc3ccc(CCCCn4ccnn4)cc3)co2)cc1` [Mubritinib] (top concentration 1000 nM), for which the “selective drug sensitivity score” value stood at 10.6.
As for `COc1cc2c(cc1OC(C)C)[C@H](c1ccc(Cl)cc1)N(c1ccc(N(C)C[C@H]3CC[C@H](N4CCN(C)C(=O)C4)CC3)cc1)C(=O)C2` [NVP-CGM097] (top concentration 25000 nM), the “selective drug sensitivity score” value was 18.6.
The same measure, in the same setting: for `CCOc1cc2ncc(C#N)c(Nc3ccc(OCc4ccccn4)c(Cl)c3)c2cc1NC(=O)/C=C/CN(C)C` [Neratinib] (top concentration 1000 nM) the value was 1.48; for `COc1ncc(-c2ccc3nccc(-c4ccnnc4)c3c2)cc1NS(=O)(=O)c1ccc(F)cc1F` [Omipalisib] (top concentration 1000 nM), 7.3; for `CN1CCN(c2cc(C(=O)Nc3ccc4c(c3)-c3c(c(C(N)=O)nn3-c3ccc(F)cc3)CC4)c(Cl)cn2)CC1` [PHA-408] (top concentration 10000 nM), 3.08.
The same measure, in the same setting: in the case of `OC[C@H]1O[C@@H](n2cnc3c2N=CNC[C@H]3O)C[C@@H]1O` [Pentostatin] (top concentration 10000 nM) it was 0.66; in that of `CC(C)N(C[C@H]1O[C@@H](n2cnc3c(N)ncnc32)[C@H](O)[C@@H]1O)[C@H]1C[C@@H](CCc2nc3cc(C(C)(C)C)ccc3[nH]2)C1` [Pinometostat] (top concentration 1000 nM), 0.
The same measure, in the same setting: in the case of `Cc1ccc(=O)n(-c2ccccc2)c1` [Pirfenidone] (top concentration 10000 nM) it was 0.
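Also: ALL cell lines in 384-well plates, five doses spanning 10,000-fold, each plate scaled between vehicle and 100 µmol/L benzalkonium chloride controls, sDSS an adapted area-under-curve metric.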
